Measured values taken from patent US20070238617A1, “Diamino-1,3,5-triazines N-substituted with bicyclic radicals, process for their preparation, compositions thereof, and their use as herbicides and plant growth regulators” (Bayer CropScience AG, priority 2006, published 2007).

Experiments:
[1] = tested on: harmful plants such as Sinapis alba, Echinochloa crus-galli, Lolium multiflorum, Stellaria media, Cyperus iria, Amaranthus retroflexus, Setaria viridis, Avena …; assay: Post-emergence effect on weeds (greenhouse pot test); type: in vivo; details: application rate of 2 kg or less of active ingredient per hectare; sprayed in the three-leaf stage; scored visually after approx. 3 to 4 weeks vs untreated controls
Experimental: Seeds or rhizome pieces of monocotyledonous and dicotyledonous weeds were placed in sandy loam in plastic pots, covered with soil and grown in the greenhouse under good growth conditions. Three weeks after sowing, the test plants were treated in the three-leaf stage. Various dosages of the compounds according to the invention, which were formulated as wettable powders or emulsion concentrates, were sprayed to the green plant parts at an application rate of 600 to 800 l of water per ha (converted). After the test plants have been left to stand in the greenhouse for approx. 3 to 4 weeks under optimal growth conditions, the effect of the preparations was scored visually by comparison with untreated controls. Compound nos.

[2] = tested on: plantation crops such as oil palm, coconut palm, India-rubber tree, citrus, pineapples, cotton, coffee, cocoa and vines; assay: Weed control in plantation crops (field trials, crop tolerance); type: in vivo; details: natural weed infestation, various dosages, even at high rates of active substance
Experimental: In further field trials plantation crops were grown under conditions of natural weed infestation and sprayed with various dosages of the substances of formula (I) according to the invention.

[3] = tested on: harmful plants such as Stellaria media, Lolium multiforum, Amaranthus retroflexus, Sinapis alba, Avena sativa and Setaria viridis; assay: Pre-emergence effect on weeds (greenhouse pot test); type: in vivo; details: application rate of 0.5 kg or less of active ingredient per hectare; applied to soil cover; scored visually after 3 to 4 weeks vs untreated controls
Source text: Seeds or rhizome pieces of monocotyledonous and dicotyledonous weed plants were placed in sandy loam in plastic pots and covered with soil. The compounds according to the invention, which were formulated in the form of wettable powders or emulsion concentrates, were then applied to the surface of the soil cover as aqueous suspension or emulsion at various dosages with an application rate of 600 to 800 l of water per ha (converted).

In the case of Cc1cc(C)c2c(c1)C(Nc1nc(N)nc(C(F)F)n1)CCC2 (racemic) [Compound 1.5], the “herbicidal post-emergence activity against harmful plants” value (from here on “herbicidal post-emergence activity”) [1] is reported as “very good herbicidal post-emergence activity”, the “damage to plantation crops (visual assessment)” value (“damage to plantation crops” for short) [2] is reported as “unharmed” and the “pre-emergence control of harmful plants” value [3] is reported as “very good pre-emergence control”.

For Cc1cccc2c1OCCC2Nc1nc(N)nc(C(F)F)n1 (racemic) [Compound 1.205], the “herbicidal post-emergence activity” value [1] was “very good herbicidal post-emergence activity”, the “damage to plantation crops” value [2] was “unharmed” and the “pre-emergence control of harmful plants” value [3] was “very good pre-emergence control”.

With Cc1ccc2c(c1)[C@H](Nc1nc(N)nc(C(F)F)n1)CC2 [Compound 2.1] the “herbicidal post-emergence activity” value [1] was “very good herbicidal post-emergence activity”, the “damage to plantation crops” value [2] was “unharmed” and the “pre-emergence control of harmful plants” value [3] was “very good pre-emergence control”.

With Cc1ccc2c(c1)[C@H](Nc1nc(N)nc(C(F)F)n1)CCC2 [Compound 2.2] the “herbicidal post-emergence activity” value [1] was “very good herbicidal post-emergence activity”, the “damage to plantation crops” value [2] was “unharmed” and the “pre-emergence control of harmful plants” value [3] was “very good pre-emergence control”.

For Cc1ccc2c(c1)[C@H](Nc1nc(N)nc(C(F)F)n1)CCO2 [Compound 2.3], the “herbicidal post-emergence activity” value [1] was “very good herbicidal post-emergence activity”, the “damage to plantation crops” value [2] was “unharmed” and the “pre-emergence control of harmful plants” value [3] was “very good pre-emergence control”.

For Cc1cc(C)c2c(c1)[C@H](Nc1nc(N)nc(C(F)F)n1)CCC2 [Compound 2.5], the “herbicidal post-emergence activity” value [1] was “very good herbicidal post-emergence activity”, the “damage to plantation crops” value [2] was “unharmed” and the “pre-emergence control of harmful plants” value [3] was “very good pre-emergence control”.

In the case of Nc1nc(N[C@@H]2CCOc3c(F)cccc32)nc(C(F)F)n1 [Compound 2.206, 6-(Difluoromethyl)-N-[(4R)-8-fluoro-3,4-dihydro-2H-chromen-4-yl]-1,3,5-triazine-2,4-diamine], the “herbicidal post-emergence activity” value [1] is reported as “very good herbicidal post-emergence activity”, the “damage to plantation crops” value [2] is reported as “unharmed” and the “pre-emergence control of harmful plants” value [3] is reported as “very good pre-emergence control”.

With Cc1ccc2c(c1)[C@H](Nc1nc(N)nc(C(F)F)n1)[C@@H](C)C2 [Compound 3.1, 6-(difluoromethyl)-N-[(1R,2S)-2,6-dimethyl-2,3-dihydro-1H-inden-1-yl]-1,3,5-triazine-2,4-diamine] the “herbicidal post-emergence activity” value [1] was “very good herbicidal post-emergence activity”, the melting point was 132 to 134 °C and the “damage to plantation crops” value [2] was “unharmed”. For the same molecule, the “pre-emergence control of harmful plants” value [3] was “very good pre-emergence control”.

With CC[C@H]1Cc2ccc(C)cc2[C@@H]1Nc1nc(N)nc(C(F)F)n1 [Compound 3.31] the “herbicidal post-emergence activity” value [1] was “very good herbicidal post-emergence activity”, the “damage to plantation crops” value [2] was “unharmed” and the “pre-emergence control of harmful plants” value [3] was “very good pre-emergence control”.

In the case of C[C@H]1Cc2ccc(Br)cc2[C@@H]1Nc1nc(N)nc(C(F)F)n1 [Compound 3.82], the “herbicidal post-emergence activity” value [1] is reported as “very good herbicidal post-emergence activity”, the “damage to plantation crops” value [2] is reported as “unharmed” and the “pre-emergence control of harmful plants” value [3] is reported as “very good pre-emergence control”.

With CC(=O)Nc1nc(N[C@H]2c3cc(C)ccc3C[C@@H]2C)nc(C(F)F)n1 [Compound 3.106] the “herbicidal post-emergence activity” value [1] was “very good herbicidal post-emergence activity”, the “damage to plantation crops” value [2] was “unharmed” and the “pre-emergence control of harmful plants” value [3] was “very good pre-emergence control”.

In the case of CCC(=O)Nc1nc(N[C@H]2c3cc(C)ccc3C[C@@H]2C)nc(C(F)F)n1 [Compound 3.109, N-(4-(difluoromethyl)-6-{[(1R,2S)-2,6-dimethyl-2,3-dihydro-1H-inden-1-yl]-amino}-1,3,5-triazin-2-yl)propanamide], the “herbicidal post-emergence activity” value [1] is reported as “very good herbicidal post-emergence activity”, the “damage to plantation crops” value [2] is reported as “unharmed” and the “pre-emergence control of harmful plants” value [3] is reported as “very good pre-emergence control”.

In the case of Cc1ccc2c(c1)[C@H](Nc1nc(NC(=O)C(C)(C)C)nc(C(F)F)n1)[C@@H](C)C2 [Compound 3.112], the “herbicidal post-emergence activity” value [1] is reported as “very good herbicidal post-emergence activity”, the “damage to plantation crops” value [2] is reported as “unharmed” and the “pre-emergence control of harmful plants” value [3] is reported as “very good pre-emergence control”.

Work on Cc1ccc2c(c1)[C@H](Nc1nc(NC=O)nc(C(F)F)n1)[C@@H](C)C2 [Compound 3.118, N-[4-(difluoromethyl)-6-{[(1R,2S)-2,6-dimethyl-2,3-dihydro-1H-inden-1-yl]amino}-1,3,5-triazin-2-yl]-formamide] yielded a melting point of 66 °C.
